Data on one molecule can be found in US20130261132A1, “CALCIUM-SENSING RECEPTOR-ACTIVE COMPOUNDS” (LEO PHARMA A/S, priority 2010, published 2013).

A word on the EC50: it is the midpoint of the concentration-response curve. High values mean a less potent agent, low ones a more potent agent.

A short description of data set [1]: Clearance in human liver microsomes. The data set is classed as in vitro ADME. Particulars: hepatic extraction ratio; test compound 0.5 μM, microsomes 0.5 mg/mL, NADPH 1 mM, 37° C. On the procedure: Test compound concentration is 0.5 μM, microsome concentration is 0.5 mg/mL and NADPH concentration is 1 mM in the incubation. The described method is performed by the liquid handling system Tecan RSP and is based on a 96-well format.
Control incubations with test compound without NADPH and test compound without microsomes are conducted to investigate non-CYP mediated metabolism and stability in phosphate buffer at 37° C., respectively.
The human liver microsomal suspension in phosphate buffer is mixed with NADPH. The mixture is pre-heated (7 min) to 37° C. Test compound is added, and the mixture is incubated for 30 minutes. Incubations are run in duplicate. Samples are withdrawn at predetermined stop times and mixed with methanol containing internal standard (IS) to terminate all enzyme activity and precipitate proteins. A control without NADPH (to detect problems such as nonspecific protein binding, heat instability or non-CYP mediated metabolism) and a control without microsomes (for assessing compound stability in the absence of any active enzymes) are tested.
The percentage of organic solvent in the incubations is less than 1%. Careful inspections of reagents are performed prior to the start of any experiment to ensure all reagents are in solution.
The 96-well plates are centrifuged. Test compound depletion, using a compound specific LC/MS/MS method, is determined.
The logarithm of the peak area ratios of test compound to internal standard (IS) versus incubation time is plotted in a graph.
The rate constant (k) (min^−1) of test compound depletion is calculated from the linear part of the curve and the half-time (t1/2) in minutes can be calculated from the rate constant (Eq. 2).
Intrinsic clearance (CIint) (mL/min/mg protein) is calculated from: […]
where c is the microsomal protein concentration in mg/mL.
Conversion to apparent clearance (CIapp) (mL/min/kg) is done by Eq. 4:
CIapp=CIint×a×b/d (Eq. 4)
where a, b and d are the scaling factors for normalizing CIint to human body weight.
a: 45 (microsomal protein/liver weight (mg/g))
b: 1500 (liver weight (g))
Hepatic clearance (CIh) (mL/min/kg) based on the well-stirred model is described as followed:
CIh=(CIapp·Q)/(CIapp+Q) (Eq. 5)
where Q is the liver blood flow in mL/min/kg (20 in humans).
Dividing hepatic clearance with liver blood flow, the hepatic extraction ratio (%) can be calculated:
Apparent clearance below approximately 10 mL/min/kg human body weight (corresponding to extraction ratio of approx. 33%) is considered as low clearance (high metabolic stability). Apparent intrinsic clearance above approximately 60 mL/min/kg human body weight (corresponding to extraction ratio of approx. 75%) is considered as high clearance (low metabolic stability).

For data set [2], the target named is T1, human CaSR (Homo sapiens, UniProt P41180).
T1 sequence (P41180 20-1078): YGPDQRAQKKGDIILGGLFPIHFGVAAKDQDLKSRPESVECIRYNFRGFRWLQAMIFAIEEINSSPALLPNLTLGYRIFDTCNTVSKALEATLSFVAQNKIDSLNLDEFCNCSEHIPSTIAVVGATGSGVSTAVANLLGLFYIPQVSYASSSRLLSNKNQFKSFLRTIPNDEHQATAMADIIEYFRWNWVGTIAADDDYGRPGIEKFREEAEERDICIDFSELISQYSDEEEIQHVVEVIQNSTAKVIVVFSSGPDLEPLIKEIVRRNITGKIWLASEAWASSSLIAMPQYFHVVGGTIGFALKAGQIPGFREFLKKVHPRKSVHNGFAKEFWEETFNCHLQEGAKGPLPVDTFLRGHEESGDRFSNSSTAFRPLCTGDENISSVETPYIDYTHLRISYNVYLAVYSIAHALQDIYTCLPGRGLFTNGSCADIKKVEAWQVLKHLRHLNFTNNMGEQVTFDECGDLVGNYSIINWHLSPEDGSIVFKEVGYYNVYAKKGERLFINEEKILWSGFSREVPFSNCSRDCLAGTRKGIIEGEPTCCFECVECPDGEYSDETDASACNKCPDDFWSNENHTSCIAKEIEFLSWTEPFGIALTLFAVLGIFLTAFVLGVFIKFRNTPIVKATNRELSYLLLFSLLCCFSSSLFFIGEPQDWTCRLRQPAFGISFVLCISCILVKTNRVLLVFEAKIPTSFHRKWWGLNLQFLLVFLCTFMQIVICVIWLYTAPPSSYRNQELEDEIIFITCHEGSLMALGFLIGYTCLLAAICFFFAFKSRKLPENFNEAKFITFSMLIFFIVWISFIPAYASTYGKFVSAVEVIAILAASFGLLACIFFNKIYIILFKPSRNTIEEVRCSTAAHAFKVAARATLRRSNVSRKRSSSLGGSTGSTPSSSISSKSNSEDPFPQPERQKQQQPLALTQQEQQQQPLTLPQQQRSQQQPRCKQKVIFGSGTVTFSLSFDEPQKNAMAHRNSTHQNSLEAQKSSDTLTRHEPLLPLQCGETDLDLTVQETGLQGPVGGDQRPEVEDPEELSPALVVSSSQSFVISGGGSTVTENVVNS
Kind of data set: Functional whole cell assay (modulation of human CaSR), IP1 accumulation in CHO-K1 cells. The data set is classed as cell-based. Particulars: CHO-K1 cells stably expressing human CaSR, final Ca2+ 1.9 mM, IP1 readout; concentration producing 50% of maximum agonistic response. The source says:
The assay investigates a compound's functional ability to act as a biological positive modulator on the human CaSR. Activation of the receptor expressed on CHO-K1 cells is detected through the G alpha q pathway, the activation of phospholipase C and the accumulation of intracellular inositol phosphate (IP) as described earlier [Sandrine Ferry, Bruno Chatel, Robert H. Dodd, Christine Lair, Danielle Gully, Jean-Pierre Maffrand, and Martial Ruat. Effects of Divalent Cations and of a Calcimimetic on Adrenocorticotropic Hormone Release in Pituitary Tumor Cells. Biochemical and biophysical research Communications 238, 866-873 (1997)]. The human CaSR is stably expressed on a CHO-K1 cell clone, stimulated with a basal level of calcium and challenged with the tested compound. The level of IP1 is determined using the IP-One Terbium htrf kit (Cisbio, France). CHO-K1 cells not transfected with the CaSR fail to elicit an IP1 response upon calcium and/or compound stimulation.
The ORF coding for the human CaSR (genebank: NM_000388) was acquired from Invitrogen Corp, USA and subsequently cloned into the mammalian expression vector pCDA3.1.
CHO-K1 cells were transfected using Lipofectamine according to manufacturer's protocol (400.000 cells/well were seeded in a 6-well plate and transfected after 24 hours using 2 μg DNA and 5 μl lipofectamine). After another 24 hours the cells were detached, seeded and subjected to 1 mg/ml of G-418. Following 7 days growth single clones were picked, the CaSR expression evaluated using the 5C10 antibody against CaSR, the clones with the highest expression were selected and tested for functional response. The preferred clone was cultured according to standard procedures described in ATCC (American Type Culture Collection) protocols for CHO-K1 with the addition of 500 μg/ml G-418.
On the assay day, cells were thawed, harvested and resuspended to 4*10^6 cells/ml in stimulation buffer (containing: Hepes 10 mM, MgCl2 0.5 mM, KCl 4.2 mM, NaCl 146 mM, glucose 5.5 mM, LiCl 50 mM, BSA 0.5% at pH 7.4). Ten μl cell solution was pipetted into wells of a white 384-well plate (Perkin Elmer Optiplate) containing 2 μl compound diluted in assay buffer (containing: Hepes 10 mM, MgCl2 0.5 mM, KCl 4.2 mM, NaCl 146 mM, glucose 5.5 mM, LiCl 50 mM, CaCl2 11.4 mM at pH 7.4), resulting in a final Ca^2+ concentration of 1.9 mM. After compound stimulation for 1 hour at 37° C. and 15 min at room temperature, 10 ul of IP-One assay detection reagent (prepared as described by the IP-One assay kit manufacturer) was added and the plate was incubated for another 1 hour at room temperature. Finally the plate was read using a Perkin Elmer EnVision, according to the protocol supplied by the IP-One assay kit manufacturer. The FRET ratio was calculated by dividing the 665 nm emission signal with that of the 615 nm.
The molar concentration of a compound that produces 50% of the maximum agonistic response (the […] value) is calculated according to the equation “General sigmoidal curve with Hill slope, a to d” (Equation 1). This model describes a sigmoidal curve with an adjustable baseline. The equation can be used to fit curves where response is either increasing or decreasing with respect to the independent variable, X. […]
y=(a−d)/(1+(x/c)̂b)+d Equation 1 x=concentration of tested compound […]
a=min response as compound concentration approaches 0 d=max response as concentration of tested compound is increasing […]
b=Hill coefficient or curve slope

Each structure is given as a SMILES string.

As to `C[C@@H](N[C@H]1CC[C@@H](c2ccc(OCC(=O)NC3CCNCC3)cc2)C1)c1cccc(Cl)c1` [Compound 102, 2-[4-[(1R,3S)-3-[[(1R)-1-(3-Chlorophenyl)ethyl]amino]-cyclopentyl]-phenoxy]-N-(4-piperidyl)-acetamide], in data set [1], the “Clearance (% Eh) in human liver microsomes” value is given as “A (A: Eh < 33%)”. In data set [2], this molecule had an EC50 of 200 to 1000 nM.
